By melting point is commonly meant the temperature, or range, at which the solid turns liquid.

Molecule `C[C@@H]1C[C@H](CC2CCCCC2)C(=O)O1` (relative stereo) [Example 20, cis-3-cyclohexylmethyl-5-methyl-dihydro-furan-2-one] came in with a melting point of 60 to 62 °C.

The values are drawn from patent US20060030719A1, “Cis-3,5-disubstituted-dihydro-furan-2-ones and the preparation and use thereof” (priority 2004, published 2006).
